# From PMC11997890, “In Vivo and In Vitro Pharmacokinetic Studies of a Dual Topoisomerase I/II Inhibitor” (ACS Pharmacology & Translational Science, 2025)
# Where “and” joins values, the source holds several entries; their conditions need not be identical. Equal values may be shown once. Read-outs that look alike come from different tables or passages of the source.
# How the values were obtained:
# [1] = In vivo plasma pharmacokinetics after i.v. and p.o. administration of P8-D6; set-up: species or system Sprague–Dawley rats; conditions: for AUC(0-t): read-out: AUC0–10 h (converted)
# Procedure: The plasma concentration–time profiles and pharmacokinetic parameters of P8-D6 after p.o. and i.v. administration are presented in Figure B and Table .
# Compartment models were used to calculate the pharmacokinetic parameters and plasma curves.
# Since a pure drug solution of P8-D6 was administered in this study, liberation (release from the dosage form) could be neglected; therefore, first-order kinetics were assumed. […] Based on our in vivo results and assumptions, P8-D6 is first homogeneously distributed in the central compartment after application before being transferred to the peripheral compartment. Elimination occurs via the central compartment. The substance transport into, out of, and between the different compartments is characterized by the macro rate constants.
# Starting with the i.v. administration, a two-compartment pharmacokinetic model was chosen that considers the biexponential decay of a fast initial first-order distribution and a slow terminal first-order elimination phase (supplied as Figure S4A,C). By this method, a fictitious initial P8-D6 plasma concentration c 0/i.v. of 4.43 μM at the time of injection was calculated (A (3.27 μM) + B (1.16 μM)). This fictitious plasma concentration corresponds to ∼1% (3.95 μmol in 8.8 mL of the theoretical plasma concentration and matches the plasma protein binding of P8-D6 of about 99% (Figure A). Based on the dose and c 0, a central V c of 0.891 L was calculated. Since the macro rate constant for distribution is considerably greater (37-fold) than the one for elimination, the elimination is the rate-determining step according to first-order kinetics.
# To cope with the overlapping curves of absorption and elimination after p.o. administration, compartmental models are used (supplied as Figure S4B,D). However, since only two to three data points exist (depending on the definitive start time of the elimination) during the elimination and distribution phase (120–600 min), no differentiation between these two phases can be described by our data (as shown by the residual method in Figure S4B). Therefore, a one-compartment model according to the Bateman function with both first-order invasion and elimination rates was assumed for the p.o. administration of P8-D6 (supplied as Figure S4D). […] A fictitious initial plasma concentration, c 0/p.o. = 2.21 μM, was calculated.
# (§1) Effects of the diet were reduced by fasting the rats overnight prior to P8-D6 application. Blood samples were taken at 5, 15, 30, 60, 120, 180, 300, 360, and 600 min after i.v. application or 30, 60, 90, 120, 240, and 600 min after p.o. application. Immediately afterward, the plasma was collected by centrifugation at 2000 g for 10 min. The rats were housed in metabolic cages to collect the urine in specially attached containers. Urine and feces samples were collected every 2 h. The rats were euthanized by CO2 inhalation. The harvested organs (kidney, spleen, lung, liver, and colon) were weighed and submerged in liquid nitrogen. All collected samples were stored at −80 °C until analysis.
# 50 μL of plasma was mixed with 100 μL of an ice-cold mixture of acetonitrile/methanol (2:1) and stirred in the vortex for 5 min. The suspension was centrifuged at 15000 g for 10 min, and 50 μL of the supernatant was injected into the HPLC (chapter Chromatographic Conditions). Calibration/control samples were prepared the same way with plasma samples collected from equal Sprague–Dawley rats from nonpharmacological studies. For calibration, the matrix was spiked with a defined concentration of the analyte. Final concentrations ranged from 0 μM to 5 μM. Triple determinations were performed and prepared on each respective day. LoD: 0.02 μM, LoQ: 0.05 μM (plasma).
# For data analysis and statistics, Microsoft Excel 2019 and GraphPad Prism (version 10.2, GraphPad Software Inc., San Diego, California), commercially available software, were used. All data are expressed either as mean ± SEM or ± SD. […]
# [2] = In vivo tissue distribution of P8-D6 and metabolites; set-up: species or system Sprague–Dawley rats
# Procedure: Another part of this in vivo study was to identify in vivo metabolites and determine the tissue distribution of P8-D6 (study preparation scheme supplied as Figure S5). […] P8-D6 N-oxide reached c max/p.o. of 0.054 μM at 30 min, and all following results were below the limit of quantification (LoQ).
# P8-D6 and P8-D6 mono each constituted about 20–30% of the detected derivatives. The extent of metabolism was, to a certain degree, organ-dependent (spleen > colon > lungs > kidney > liver). The highest concentration of P8-DO was found in the spleen at 8.7 nmol/g and the lowest in the liver at 4.5 nmol/g.
# as §1
# 100 μL of each tissue homogenate/PNS was mixed with 200 μL of an ice-cold mixture of acetonitrile/methanol (2:1) and stirred in the vortex for 5 min. The suspension was centrifuged at 20000 g for 10 min, and 50 μL of the supernatant was injected into the HPLC. The samples from six mice per group were analyzed. Calibration/control samples were prepared the same way with organ samples collected from equal Sprague–Dawley rats from nonpharmacological studies prepared according to chapter Tissue/Enzymes. For calibration, the matrix was spiked with a defined concentration of the analyte. Final concentrations ranged from 0 to 10 nmol/g. Triple determinations were performed and prepared on each respective day. LoD: 0.81 nmol/g (spleen), 0.33 nmol/g (liver), 0.48 nmol/g (lungs), 1.14 nmol/g (colon), 0.38 nmol/g (kidney); LoQ: 2.69 nmol/g (spleen), 1.09 nmol/g (liver), 1.59 nmol/g (lungs), 3.80 nmol/g (colon), 1.28 nmol/g (kidney).
# [3] = spleen, liver, lungs, kidney, colon after P8-D6
# [4] = male, Sprague-Dawley, rat, plasma, iv, 10 mg/kg, after i.v. administration of P8-D6 10 mg/kg BW, read-out: c max/i.v. of metabolite in plasma
# [5] = male, Sprague-Dawley, rat, plasma, po, 50 mg/kg, after p.o. administration of P8-D6 50 mg/kg BW, read-out: c max/p.o. of metabolite in plasma
smiles,measurement,setting,value
"COc1cc(-c2cc3ccncc3c3nc(OCCN(C)C)c4cnccc4c23)cc(OC)c1OC [P8-D6, 6-(N,N-dimethyl-2-aminoethoxy)-11-(3,4,5-trimethoxyphenyl)-pyrido[3,4-c][1,9]-phenanthroline]",CLi.v.,[1]; i.v.,6.34 mL/min
same,apparent volume of distribution,[1]; i.v.,57.69 L/m^2
same,fictitious plasma concentration as share of theoretical plasma concentration,[1]; i.v.,~1%
same,macro rate constant for distribution greater than for elimination,[1]; i.v.,37 fold
same,c min,"[1]; i.v. 10 mg/kg BW, plasma, 10 mg/kg",0.35 µM and 0.35 ± 0.05 µM
same,CL,"[1]; i.v., total body surface of 0.0357 m^2",10.66 L/(h m^2)
same,Macro rate constant ß,"[1]; i.v., two-compartment model",0.002 min^–1
same,Macro rate constant α,"[1]; i.v., two-compartment model",0.073 min^–1
same,coefficient A,"[1]; i.v., two-compartment model",3.27 µM
same,coefficient B,"[1]; i.v., two-compartment model",1.16 µM
same,clearance,"[1]; male, Sprague-Dawley, rat, plasma, iv, 10 mg/kg body weight",6.33 mL/min
same,half-life,"[1]; male, Sprague-Dawley, rat, plasma, iv, 10 mg/kg body weight, i.v., read-out: Initial t 1/2",0.158 h
same,half-life,"[1]; male, Sprague-Dawley, rat, plasma, iv, 10 mg/kg body weight, i.v., read-out: Terminal t 1/2",5.78 h
same,Vd,"[1]; male, Sprague-Dawley, rat, plasma, iv, 10 mg/kg body weight, i.v., read-out: V d",2.06 L and 9.36 L/kg
same,Vd,"[1]; male, Sprague-Dawley, rat, plasma, iv, 10 mg/kg body weight, i.v., read-out: V ss",2.95 L and 13.4 L/kg
same,half-life,"[1]; male, Sprague-Dawley, rat, plasma, iv, 10 mg/kg body weight, i.v., read-out: plasma half-life t 1/2 (converted)",5.8 h
same,C0,"[1]; male, Sprague-Dawley, rat, plasma, iv, 10 mg/kg body weight, i.v., at the time of injection, two-compartment model, read-out: fictitious initial plasma concentration c 0/i.v.",4430 nM
same,Cmax,"[1]; male, Sprague-Dawley, rat, plasma, iv, 10 mg/kg, i.v. 10 mg/kg BW, plasma, read-out: c max",3950 ± 420 nM
same,Tmax,"[1]; male, Sprague-Dawley, rat, plasma, iv, 10 mg/kg, i.v. 10 mg/kg BW, read-out: t max",0 h
same,AUC(0-t),"[1]; male, Sprague-Dawley, rat, plasma, iv, i.v. 10 mg/kg BW",7.49 µM·h
same,bioavailability,"[1]; male, Sprague-Dawley, rat, plasma, iv, i.v. 10 mg/kg BW, read-out: Bioavailability",100%
same,bioavailability,"[1]; male, Sprague-Dawley, rat, plasma, oral, 50 mg/kg body weight, p.o. 50 mg/kg BW vs i.v. 10 mg/kg BW, read-out: Oral bioavailability",21.5%
same,half-life,"[1]; male, Sprague-Dawley, rat, plasma, po, 50 mg/kg body weight, p.o., read-out: Terminal t 1/2",8.64 h
same,half-life,"[1]; male, Sprague-Dawley, rat, plasma, po, 50 mg/kg body weight, p.o., read-out: plasma half-life t 1/2 (converted)",8.6 h
same,k el,"[1]; male, Sprague-Dawley, rat, plasma, po, 50 mg/kg body weight, p.o., one-compartment model, read-out: Macro rate constant k e",2.17e-05 s⁻¹
same,C0,"[1]; male, Sprague-Dawley, rat, plasma, po, 50 mg/kg body weight, p.o., one-compartment model, read-out: fictitious initial plasma concentration c 0/p.o.",2210 nM
same,Cmax,"[1]; male, Sprague-Dawley, rat, plasma, po, 50 mg/kg, p.o. 50 mg/kg BW, compartment model, read-out: c max (calculated)",1250 nM
same,Tmax,"[1]; male, Sprague-Dawley, rat, plasma, po, 50 mg/kg, p.o. 50 mg/kg BW, compartment model, read-out: t max (calculated) (converted)",1.77 h
same,Cmax,"[1]; male, Sprague-Dawley, rat, plasma, po, 50 mg/kg, p.o. 50 mg/kg BW, plasma, read-out: c max (measured)",1160 nM
same,Tmax,"[1]; male, Sprague-Dawley, rat, plasma, po, 50 mg/kg, p.o. 50 mg/kg BW, read-out: t max (measured) (converted)",2 h
same,AUC(0-t),"[1]; male, Sprague-Dawley, rat, plasma, po, p.o. 50 mg/kg BW",8.03 µM·h
same,CL,[1]; p.o.,0.24 L/h
same,CLp.o.,[1]; p.o.,3.96 mL/min
same,apparent volume of distribution,[1]; p.o.,82.92 L/m^2
same,c min,"[1]; p.o. 50 mg/kg BW, plasma, 50 mg/kg",0.59 µM and 0.59 ± 0.06 µM
same,Macro rate constant k a,"[1]; p.o., one-compartment model",0.031 min^–1
same,CL,"[1]; p.o., total body surface of 0.0357 m^2",6.65 L/(h m^2)
same,V ss,[1]; total body surface of 0.0357 m^2,82.69 L/m^2
same,proportion of all derivatives detected in tissue,[2]; [3],20–30%
CNCCOc1nc2c3cnccc3cc(-c3cc(OC)c(OC)c(OC)c3)c2c2ccncc12 [P8-D6 mono],Cmax,[1]; [4],114 nM
same,Cmax,[1]; [5],341 nM
same,proportion of all derivatives detected in tissue,[2]; [3],20–30%
COc1cc(-c2cc3ccncc3c3[nH]c(=O)c4cnccc4c23)cc(OC)c1OC [P8-DO],detection in plasma,[1]; after administration of P8-D6,no P8-DO was detected
same,concentration in tissue,[2]; liver (lowest),4.5 nmol/g
same,concentration in tissue,[2]; spleen (highest),8.7 nmol/g
same,proportion of all derivatives detected in tissue,[2]; [3],about 50%
COc1cc(-c2cc3ccncc3c3nc(OCC[N+](C)(C)[O-])c4cnccc4c23)cc(OC)c1OC [P8-D6 N-oxide],Cmax,[1]; [4],228 nM
same,Cmax,[1]; [5],54 nM
same,detection in tissue,[2]; [3],no P8-D6 N-oxide was observed at all
